# Measured values published in ChEMBL document CHEMBL4406807, “Discovery of 3,4,6-Trisubstituted Piperidine Derivatives as Orally Active, Low hERG Blocking Akt Inhibitors via Conformational Restriction and Structure-Based Design” (J Med Chem, 2019).
# Tests used:
# [1] = test system: OVCAR-8; experiment: Antiproliferative activity against human OVCAR8 cells; type: functional, cell-based
# [2] = test system: HCT-116; experiment: cells; conditions: Homo sapiens, HCT-116, 72 h
# [3] = molecular target: hERG (KCNH2) (Homo sapiens, UniProt Q12809); experiment: Inhibition of ERG in human HEK293 cells at 3 uM at -80 mV holding potential by whole-cell patch clamp assay relative to control; type: cell-based; conditions: HEK293 cells expressing ERG
# [4] = test system: LNCaP; experiment: Antiproliferative activity against human LNCAP cells; type: functional, cell-based
# [5] = molecular target: RAC-alpha serine/threonine-protein kinase (Homo sapiens, UniProt P31749)
# Description: Inhibition of human Akt1 expressed in Escherichia coli using STK Substrate 2-biotin as substrate incubated for 1 hr by HTRF assay
# [6] = Inhibition of recombinant His-tagged human PKA expressed in Escherichia coli using Ser/Thr 01 as substrate after 1 hr by Z-lyte assay
# [7] = Volume of distribution in Sprague-Dawley rat at 25 mg/kg, ig measured up to 24 hrs by LC-MS/MS analysis; type: ADME, organism-based; conditions: in vivo, po
# [8] = Tmax in Sprague-Dawley rat at 25 mg/kg, ig measured up to 24 hrs by LC-MS/MS analysis; type: ADME, organism-based; conditions: in vivo, po
# [9] = Clearance in Sprague-Dawley rat at 25 mg/kg, ig measured up to 24 hrs by LC-MS/MS analysis; type: ADME, organism-based; conditions: in vivo, po
# [10] = Microsomal stability in mouse liver microsomes assessed as compound remaining at 100 ug/ml in presence of NADPH measured at 1.5 hrs by LC/MS analysis; type: ADME, Microsome; conditions: read-out: Stability
# [11] = molecular target: Ribosomal protein S6 kinase beta-1 (Homo sapiens, UniProt P23443); experiment: Inhibition of human P70S6K by mobility shift assay
# [12] = molecular target: RAC-beta serine/threonine-protein kinase (Homo sapiens, UniProt P31751); experiment: Inhibition of human Akt2 by mobile shift assay
# [13] = AUC (0 to infinity) in Sprague-Dawley rat at 25 mg/kg, ig measured up to 24 hrs by LC-MS/MS analysis; type: ADME, organism-based; parameters: dose 25 mg/kg, route […], time infinity; conditions: in vivo, po
# [14] = molecular target: Protein kinase C (PKC); experiment: Inhibition of PKC (unknown origin); type: protein assay, Homo sapiens
# [15] = Microsomal stability in rat liver microsomes assessed as compound remaining at 100 ug/ml in presence of NADPH measured at 1.5 hrs by LC/MS analysis; type: ADME, Microsome; conditions: read-out: Stability
# [16] = molecular target: RAC-gamma serine/threonine-protein kinase (Homo sapiens, UniProt Q9Y243); experiment: Inhibition of Akt3 (unknown origin) by mobile shift assay
# [17] = Microsomal stability in monkey liver microsomes assessed as compound remaining at 100 ug/ml in presence of NADPH measured at 1.5 hrs by LC/MS analysis; type: ADME, Macaca mulatta, Microsome; conditions: rhesus monkey, read-out: Stability
# [18] = AUC (0 to t) in Sprague-Dawley rat at 25 mg/kg, ig measured up to 24 hrs by LC-MS/MS analysis; type: ADME, organism-based; parameters: time < 24 hr, dose 25 mg/kg, route […]; conditions: in vivo, po
# [19] = Stability in human plasma at 100 ug/ml after 1 hr by LC/MS analysis; type: ADME, cell-free; conditions: read-out: Stability
# [20] = Cmax in Sprague-Dawley rat at 25 mg/kg, ig measured up to 24 hrs by LC-MS/MS analysis; type: ADME, organism-based; parameters: dose 25 mg/kg, route […]; conditions: in vivo, po
# [21] = Stability in mouse plasma at 100 ug/ml after 1 hr by LC/MS analysis; type: ADME, cell-free; conditions: read-out: Stability
# [22] = Microsomal stability in dog liver microsomes assessed as compound remaining at 100 ug/ml in presence of NADPH measured at 1.5 hrs by LC/MS analysis; type: ADME, Canis lupus familiaris, Microsome; conditions: read-out: Stability
# [23] = MRT (0 to t) in Sprague-Dawley rat at 25 mg/kg, ig measured up to 24 hrs by LC-MS/MS analysis; type: ADME, organism-based; conditions: in vivo, po
# [24] = molecular target: T1, Serine/threonine-protein kinase Sgk1 (Homo sapiens, UniProt O00141); experiment: Inhibition of human SGK by mobility shift assay
# T1 sequence (O00141 whole entry): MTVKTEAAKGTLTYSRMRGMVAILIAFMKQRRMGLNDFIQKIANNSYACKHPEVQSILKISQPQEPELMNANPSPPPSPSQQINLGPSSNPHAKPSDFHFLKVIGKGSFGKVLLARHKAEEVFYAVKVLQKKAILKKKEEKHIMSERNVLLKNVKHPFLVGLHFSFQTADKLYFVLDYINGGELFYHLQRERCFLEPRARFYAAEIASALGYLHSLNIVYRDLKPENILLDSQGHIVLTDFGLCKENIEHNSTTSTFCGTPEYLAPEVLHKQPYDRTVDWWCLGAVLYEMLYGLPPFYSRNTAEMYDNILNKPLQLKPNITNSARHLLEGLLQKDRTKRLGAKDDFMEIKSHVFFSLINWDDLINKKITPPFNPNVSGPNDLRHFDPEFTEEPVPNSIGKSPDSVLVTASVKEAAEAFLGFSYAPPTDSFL
# [25] = molecular target: Rho-associated protein kinase 1 (Homo sapiens, UniProt Q13464); experiment: Inhibition of human ROCK1 by mobile shift assay
# [26] = Half-life in Sprague-Dawley rat at 25 mg/kg, ig measured up to 24 hrs by LC-MS/MS analysis; type: ADME, organism-based; conditions: in vivo, po
# [27] = MRT (0 to infinity) in Sprague-Dawley rat at 25 mg/kg, ig measured up to 24 hrs by LC-MS/MS analysis; type: ADME, organism-based; conditions: in vivo, po
# [28] = molecular target: Ribosomal protein S6 kinase alpha-1 (Homo sapiens, UniProt Q15418); experiment: Inhibition of RSK1 (unknown origin) by mobility shift assay
# [29] = test system: SK-OV-3; experiment: Antitumor activity against human SKOV3 cells xenografted in BALB/c nude mouse assessed as tumor growth inhibition at 60 mg/kg, po administered once daily for 21 days relative to control; type: functional; conditions: SK-OV-3, po, 504 h, read-out: TGI
# [30] = Toxicity in BALB/c nude mouse xenografted with human SKOV3 cells assessed as effect on body weight at 60 to 80 mg/kg, po administered once daily for 21 days; type: organism-based; conditions: in vivo, 504 h
# [31] = Toxicity in BALB/c nude mouse xenografted with human SKOV3 cells assessed as reduction in mouse survival at 60 to 80 mg/kg, po administered once daily for 21 days; type: organism-based; conditions: in vivo, 504 h
# hERG (KCNH2), sequence (Q12809 whole entry): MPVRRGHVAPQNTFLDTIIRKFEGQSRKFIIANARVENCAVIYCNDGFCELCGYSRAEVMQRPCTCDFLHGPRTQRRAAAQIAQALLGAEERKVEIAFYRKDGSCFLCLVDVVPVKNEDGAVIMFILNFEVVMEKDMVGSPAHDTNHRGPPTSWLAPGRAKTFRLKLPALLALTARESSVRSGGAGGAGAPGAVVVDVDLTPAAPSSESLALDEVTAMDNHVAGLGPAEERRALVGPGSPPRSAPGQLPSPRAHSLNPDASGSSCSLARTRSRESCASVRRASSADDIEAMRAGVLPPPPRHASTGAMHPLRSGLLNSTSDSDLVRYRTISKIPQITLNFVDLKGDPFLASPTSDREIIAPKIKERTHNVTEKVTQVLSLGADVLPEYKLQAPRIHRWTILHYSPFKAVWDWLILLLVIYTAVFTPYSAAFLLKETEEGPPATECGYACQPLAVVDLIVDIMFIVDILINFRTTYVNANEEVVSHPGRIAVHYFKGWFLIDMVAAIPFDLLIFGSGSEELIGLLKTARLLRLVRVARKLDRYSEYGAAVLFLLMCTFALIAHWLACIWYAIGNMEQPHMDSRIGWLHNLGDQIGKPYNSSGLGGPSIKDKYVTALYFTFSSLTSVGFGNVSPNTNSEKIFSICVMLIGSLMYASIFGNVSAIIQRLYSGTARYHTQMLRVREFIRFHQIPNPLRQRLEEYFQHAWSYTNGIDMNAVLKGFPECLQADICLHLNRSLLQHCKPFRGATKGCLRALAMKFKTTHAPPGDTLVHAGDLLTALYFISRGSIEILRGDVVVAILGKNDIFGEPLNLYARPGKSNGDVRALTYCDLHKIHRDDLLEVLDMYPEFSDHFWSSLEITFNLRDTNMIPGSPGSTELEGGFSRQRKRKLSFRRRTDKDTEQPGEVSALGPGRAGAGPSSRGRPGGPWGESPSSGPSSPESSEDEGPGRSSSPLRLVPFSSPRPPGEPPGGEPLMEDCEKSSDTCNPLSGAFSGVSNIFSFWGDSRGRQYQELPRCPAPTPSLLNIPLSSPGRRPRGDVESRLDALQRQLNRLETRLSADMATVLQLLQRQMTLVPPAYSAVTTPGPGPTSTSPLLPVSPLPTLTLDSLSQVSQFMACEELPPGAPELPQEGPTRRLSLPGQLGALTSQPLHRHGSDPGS
# RAC-alpha serine/threonine-protein kinase, sequence (P31749 whole entry): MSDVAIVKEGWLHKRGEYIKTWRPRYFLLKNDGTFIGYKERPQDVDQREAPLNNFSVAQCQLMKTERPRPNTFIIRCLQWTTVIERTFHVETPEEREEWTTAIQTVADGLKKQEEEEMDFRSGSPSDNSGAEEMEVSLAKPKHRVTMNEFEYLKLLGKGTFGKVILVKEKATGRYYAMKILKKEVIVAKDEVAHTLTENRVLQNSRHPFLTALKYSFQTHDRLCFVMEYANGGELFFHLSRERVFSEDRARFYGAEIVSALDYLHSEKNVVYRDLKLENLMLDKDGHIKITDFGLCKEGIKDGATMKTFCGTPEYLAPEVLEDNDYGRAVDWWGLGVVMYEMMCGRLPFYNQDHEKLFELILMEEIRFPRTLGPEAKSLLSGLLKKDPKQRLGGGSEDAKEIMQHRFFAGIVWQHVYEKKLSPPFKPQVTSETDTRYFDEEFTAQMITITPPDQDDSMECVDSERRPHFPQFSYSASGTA
# Ribosomal protein S6 kinase alpha-1, sequence (Q15418 whole entry): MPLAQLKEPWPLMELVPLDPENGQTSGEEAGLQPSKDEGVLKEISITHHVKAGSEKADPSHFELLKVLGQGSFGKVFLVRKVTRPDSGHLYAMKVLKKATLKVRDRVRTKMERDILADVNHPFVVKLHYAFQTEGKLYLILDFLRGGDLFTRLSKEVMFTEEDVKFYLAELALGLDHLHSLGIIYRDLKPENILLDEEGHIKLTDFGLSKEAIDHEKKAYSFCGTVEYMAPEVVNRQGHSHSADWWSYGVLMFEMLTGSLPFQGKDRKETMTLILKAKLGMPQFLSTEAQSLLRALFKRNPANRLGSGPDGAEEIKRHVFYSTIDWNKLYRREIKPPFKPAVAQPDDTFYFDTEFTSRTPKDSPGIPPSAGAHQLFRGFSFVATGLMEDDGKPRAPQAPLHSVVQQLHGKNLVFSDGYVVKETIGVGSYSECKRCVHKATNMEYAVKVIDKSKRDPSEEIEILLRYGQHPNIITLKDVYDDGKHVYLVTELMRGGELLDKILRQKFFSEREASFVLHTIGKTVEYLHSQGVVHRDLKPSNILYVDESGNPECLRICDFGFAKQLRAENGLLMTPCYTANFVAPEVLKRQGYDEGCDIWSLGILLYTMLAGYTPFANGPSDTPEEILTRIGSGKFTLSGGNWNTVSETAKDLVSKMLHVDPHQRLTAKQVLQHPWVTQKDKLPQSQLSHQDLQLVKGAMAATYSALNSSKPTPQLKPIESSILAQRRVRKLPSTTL
# Ribosomal protein S6 kinase beta-1, sequence (P23443 whole entry): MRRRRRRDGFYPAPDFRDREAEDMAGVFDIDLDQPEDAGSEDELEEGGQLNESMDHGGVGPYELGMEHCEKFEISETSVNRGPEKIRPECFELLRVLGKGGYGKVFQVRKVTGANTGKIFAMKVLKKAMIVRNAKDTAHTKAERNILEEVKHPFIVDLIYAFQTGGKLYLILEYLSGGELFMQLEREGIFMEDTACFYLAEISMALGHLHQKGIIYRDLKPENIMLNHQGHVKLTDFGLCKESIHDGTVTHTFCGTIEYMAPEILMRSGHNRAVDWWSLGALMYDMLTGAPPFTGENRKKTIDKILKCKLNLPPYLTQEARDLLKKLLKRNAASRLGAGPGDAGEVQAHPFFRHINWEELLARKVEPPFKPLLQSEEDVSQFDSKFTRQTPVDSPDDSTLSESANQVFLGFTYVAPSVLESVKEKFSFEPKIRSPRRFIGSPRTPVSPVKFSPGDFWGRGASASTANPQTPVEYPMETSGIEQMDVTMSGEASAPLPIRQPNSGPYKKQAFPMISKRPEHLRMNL
# RAC-beta serine/threonine-protein kinase, sequence (P31751 whole entry): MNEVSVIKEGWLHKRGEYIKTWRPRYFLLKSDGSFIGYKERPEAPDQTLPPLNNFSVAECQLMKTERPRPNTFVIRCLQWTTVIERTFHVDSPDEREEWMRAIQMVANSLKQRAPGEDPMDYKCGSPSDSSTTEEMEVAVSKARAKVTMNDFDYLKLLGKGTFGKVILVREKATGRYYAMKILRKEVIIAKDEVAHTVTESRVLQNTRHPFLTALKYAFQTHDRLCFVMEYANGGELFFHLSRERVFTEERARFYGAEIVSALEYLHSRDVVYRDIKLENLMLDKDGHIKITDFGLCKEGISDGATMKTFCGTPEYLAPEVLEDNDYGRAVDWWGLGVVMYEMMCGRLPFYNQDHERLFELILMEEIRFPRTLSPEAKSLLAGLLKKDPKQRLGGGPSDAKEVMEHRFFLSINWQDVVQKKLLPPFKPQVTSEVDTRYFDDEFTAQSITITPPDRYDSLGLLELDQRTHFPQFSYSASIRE
# Rho-associated protein kinase 1, sequence (Q13464 whole entry): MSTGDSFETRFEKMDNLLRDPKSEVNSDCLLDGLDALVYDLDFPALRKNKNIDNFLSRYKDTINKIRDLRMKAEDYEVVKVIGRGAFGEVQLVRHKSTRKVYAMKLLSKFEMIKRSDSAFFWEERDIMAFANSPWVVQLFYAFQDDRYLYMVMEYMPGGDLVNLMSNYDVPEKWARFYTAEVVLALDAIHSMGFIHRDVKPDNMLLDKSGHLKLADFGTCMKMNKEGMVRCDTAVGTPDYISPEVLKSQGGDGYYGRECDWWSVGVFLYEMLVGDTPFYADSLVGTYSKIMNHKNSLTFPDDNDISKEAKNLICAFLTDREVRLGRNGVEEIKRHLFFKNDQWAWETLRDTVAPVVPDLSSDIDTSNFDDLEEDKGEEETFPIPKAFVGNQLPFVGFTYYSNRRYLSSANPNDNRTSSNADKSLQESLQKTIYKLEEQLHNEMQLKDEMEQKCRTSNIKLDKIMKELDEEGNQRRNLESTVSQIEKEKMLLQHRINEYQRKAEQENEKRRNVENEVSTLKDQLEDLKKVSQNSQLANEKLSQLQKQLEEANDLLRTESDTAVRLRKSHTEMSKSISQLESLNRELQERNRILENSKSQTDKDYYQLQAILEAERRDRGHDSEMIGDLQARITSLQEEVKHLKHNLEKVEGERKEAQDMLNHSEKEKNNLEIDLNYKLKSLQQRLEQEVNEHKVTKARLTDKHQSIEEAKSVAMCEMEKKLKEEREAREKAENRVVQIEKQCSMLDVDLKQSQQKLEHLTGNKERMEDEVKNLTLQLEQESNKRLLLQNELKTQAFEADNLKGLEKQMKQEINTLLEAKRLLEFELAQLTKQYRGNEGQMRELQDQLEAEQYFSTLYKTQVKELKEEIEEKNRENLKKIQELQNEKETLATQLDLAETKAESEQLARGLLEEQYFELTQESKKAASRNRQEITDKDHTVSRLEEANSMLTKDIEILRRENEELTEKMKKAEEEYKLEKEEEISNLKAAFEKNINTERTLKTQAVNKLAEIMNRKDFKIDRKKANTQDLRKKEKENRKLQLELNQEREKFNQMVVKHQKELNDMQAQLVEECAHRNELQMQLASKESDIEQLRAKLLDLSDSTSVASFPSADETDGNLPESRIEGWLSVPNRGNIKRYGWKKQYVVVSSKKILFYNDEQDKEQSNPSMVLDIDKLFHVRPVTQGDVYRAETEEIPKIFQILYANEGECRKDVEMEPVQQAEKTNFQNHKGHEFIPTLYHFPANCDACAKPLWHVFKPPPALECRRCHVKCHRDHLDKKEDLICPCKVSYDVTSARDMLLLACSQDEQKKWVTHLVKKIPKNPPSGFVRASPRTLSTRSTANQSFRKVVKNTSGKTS
smiles,measurement,setting,value
Cn1ncc(Cl)c1-c1cc(C(=O)N[C@@H]2CN[C@H](CC(N)=O)C[C@H]2c2ccc(Cl)c(Cl)c2)oc1Cl,IC50,[1],1000 nM
same,IC50,[2],650 nM
same,inhibition at 3 µM,[3],15.7%
same,IC50,[4],160 nM
same,IC50,[5],3.24 nM
Cn1ncc(Cl)c1-c1cc(C(=O)N[C@@H]2CN[C@H](CCO)C[C@H]2c2ccc(F)c(F)c2)oc1Cl,IC50,[6],0.2 nM
same,Vd,[7],300.9 L/kg
same,IC50,[1],460 nM
same,IC50,[2],360 nM
same,Tmax,[8],1.1 h
same,CL/F,[9],433 mL/min/kg
same,"remaining at 1.5 h, 100 ug/ml",[10],> 99%
same,IC50,[11],7.1 nM
same,IC50,[12],0.54 nM
same,AUC(0-inf),[13],1660 ng·h/mL
same,IC50,[14],16 nM
same,"remaining at 1.5 h, 100 ug/ml",[15],69%
same,IC50,[16],0.12 nM
same,"remaining at 1.5 h, 100 ug/ml",[17],18%
same,AUC(0-t) at 24 h,[18],1010 ng·h/mL
same,"remaining at 1 h, 100 ug/ml",[19],> 99%
same,inhibition at 3 µM,[3],9%
same,Cmax,[20],145 ng/mL
same,"remaining at 1 h, 100 ug/ml",[21],> 99%
same,IC50,[4],60 nM
same,IC50,[5],0.98 nM
same,"remaining at 1.5 h, 100 ug/ml",[22],96%
same,MRT last at 24 h,[23],5.1 h
same,IC50,[24],102 nM
same,IC50,[25],38 nM
same,half-life,[26],12.7 h
same,MRT inf,[27],12.3 h
same,IC50,[28],32 nM
Cn1ncc(Cl)c1-c1cc(C(=O)N[C@@H]2CNCC[C@H]2c2ccc(Cl)c(Cl)c2)oc1Cl,IC50,[1],110 nM
same,IC50,[2],280 nM
same,inhibition at 3 µM,[3],87%
same,IC50,[4],100 nM
same,IC50,[5],2.9 nM
Cn1ncc(Cl)c1-c1cc(C(=O)N[C@@H]2CN[C@H](CC(=O)O)C[C@H]2c2ccc(Cl)c(Cl)c2)oc1Cl,IC50,[1],5120 nM
same,IC50,[2],4020 nM
same,inhibition at 3 µM,[3],9.1%
same,IC50,[4],640 nM
same,IC50,[5],1.94 nM
Cn1ncc(Cl)c1-c1cc(C(=O)N[C@@H]2CN[C@H](CCN3CCOCC3)C[C@H]2c2ccc(Cl)c(Cl)c2)oc1Cl,IC50,[1],1760 nM
same,IC50,[2],1560 nM
same,inhibition at 3 µM,[3],82.3%
same,IC50,[4],410 nM
same,IC50,[5],8.78 nM
Cn1ncc(Cl)c1-c1cc(C(=O)N[C@@H]2CN[C@H](CCCO)C[C@H]2c2ccc(Cl)c(Cl)c2)oc1Cl,IC50,[1],600 nM
same,IC50,[2],510 nM
same,inhibition at 3 µM,[3],72%
same,IC50,[4],210 nM
same,IC50,[5],2.56 nM
Cn1ncc(Cl)c1-c1cc(C(=O)N[C@@H]2CN[C@H](CC(O)CO)C[C@H]2c2ccc(Cl)c(Cl)c2)oc1Cl (some centres undefined),IC50,[1],1610 nM
same,IC50,[2],1110 nM
same,inhibition at 3 µM,[3],17%
same,IC50,[4],70 nM
same,IC50,[5],3.79 nM
CNC(=O)C[C@@H]1C[C@@H](c2ccc(Cl)c(Cl)c2)[C@H](NC(=O)c2cc(-c3c(Cl)cnn3C)c(Cl)o2)CN1,IC50,[1],1130 nM
same,IC50,[2],450 nM
same,inhibition at 3 µM,[3],45.9%
same,IC50,[4],40 nM
same,IC50,[5],2.64 nM
Cn1ncc(Cl)c1-c1cc(C(=O)N[C@@H]2CN[C@H](CCO)C[C@H]2c2ccc(Cl)c(Cl)c2)oc1Cl,IC50,[1],610 nM
same,IC50,[2],340 nM
same,inhibition at 3 µM,[3],51.8%
same,IC50,[4],160 nM
same,IC50,[5],2.74 nM
Cn1ncc(Cl)c1-c1cc(C(=O)N[C@@H]2CN[C@H](CCN3CCC(O)CC3)C[C@H]2c2ccc(Cl)c(Cl)c2)oc1Cl,IC50,[1],15900 nM
same,IC50,[2],13700 nM
same,inhibition at 3 µM,[3],12%
same,IC50,[4],1140 nM
same,IC50,[5],5.99 nM
Cn1ncc(Cl)c1-c1cc(C(=O)N[C@@H]2CN[C@H](CCn3cncn3)C[C@H]2c2ccc(Cl)c(Cl)c2)oc1Cl,IC50,[1],1560 nM
same,IC50,[2],560 nM
same,inhibition at 3 µM,[3],50.1%
same,IC50,[4],60 nM
same,IC50,[5],4.47 nM
Cn1ncc(Cl)c1-c1cc(C(=O)N[C@@H]2CN[C@H](CCN3CCCCC3)C[C@H]2c2ccc(Cl)c(Cl)c2)oc1Cl,IC50,[1],1660 nM
same,IC50,[2],1020 nM
same,inhibition at 3 µM,[3],93.1%
same,IC50,[4],1780 nM
same,IC50,[5],5.65 nM
Cn1ncc(Cl)c1-c1cc(C(=O)N[C@@H]2CN[C@H](CC(=O)NC3CC3)C[C@H]2c2ccc(Cl)c(Cl)c2)oc1Cl,IC50,[1],580 nM
same,IC50,[2],740 nM
same,inhibition at 3 µM,[3],70.4%
same,IC50,[4],190 nM
same,IC50,[5],3.95 nM
CN(C)CC[C@@H]1C[C@@H](c2ccc(Cl)c(Cl)c2)[C@H](NC(=O)c2cc(-c3c(Cl)cnn3C)c(Cl)o2)CN1,IC50,[1],1510 nM
same,IC50,[2],1710 nM
same,inhibition at 3 µM,[3],73.4%
same,IC50,[4],1930 nM
same,IC50,[5],3.4 nM
Cn1ncc(Cl)c1-c1cc(C(=O)N[C@H](CN)Cc2ccc(F)c(F)c2)oc1Cl [UPROSERTIB],IC50,[6],0.6 nM
same,IC50,[1],240 to 1320 nM
same,IC50,[2],720 to 1270 nM
same,inhibition in vivo at 60 mg/kg,[29],63.3%
same,IC50,[11],60 nM
same,Activity,[30],Non-Toxic
same,inhibition at 3 µM,[3],50 to 50.2%
same,IC50,[4],70 nM
same,Activity,[31],Non-Toxic
same,IC50,[24],211 nM
same,IC50,[28],339 nM
